In patent US20030055244A1, “Pyridyl-containing spirocyclic compounds as inhibitors of fibrinogen-dependent platelet aggregation” (priority 1999, published 2003) one finds IC50 data, which are given here for 27 molecules.

The subject of assay [1] is human platelet-rich plasma. Kind of assay: Platelet aggregation assay (Aggregation-Human PRP/ADP). It counts as cell-based. How it is done:
Platelet-rich plasma was prepared from healthy human volunteers for use in determining inhibition of platelet aggregation by the compounds.
Platelet-rich plasma was prepared at room temperature by centrifugation of the citrated whole blood at 100 × g for twelve minutes. The platelet rich plasma contained approximately 200-400,000 platelets/μl.
Platelet aggregation was assayed in a 4-channel platelet aggregation profiler (PAP-4, Biodata, Hatboro, Pa.) according to the manufacturers directions. Inhibition of platelet aggregation was studied by adding varying amounts of adenosine diphosphate (ADP) to stirred human platelet-rich plasma. Specifically, the human platelet-rich plasma was incubated with the compound being tested for 1 minute at 37° C. prior to the addition of a variety of aggregating agents most often ADP 5 μM to 20 μM, but also 1 μg/ml collagen, 1 μM U46619 and 0.3 μM platelet activating factor.

Assay [2] deals with T1, GPIIb-IIIa (Homo sapiens, UniProt P05106+P08514).
T1 construct: Purified platelet GPIIb-IIIa receptor was prepared as described by Fitzgerald; from tissue; host or cells: platelets
As to the kind of experiment: ELISA IIb-IIIa assay (fibrinogen binding to immobilized purified GPIIb-IIIa). The following applies: inhibition of fibrinogen binding to purified GPIIb-IIIa. The procedure:
No. 1 - The ELISA IIb-IIIa Assay
PIIb-IIIa is coated onto microtiter plates. The coated support is then contacted with fibrinogen and with the test material (e.g., compounds of Formula I) and incubated for a sufficient time to permit maximal binding of fibrinogen to the immobilized GPIIb- Ila. Fibrinogen is typically provided at a concentration of about 5-50 nM and the test material can, if desired, be added at a series of dilution. Typical incubations are 2 to 4 hours at 25° C., the time and temperature being interdependent.
After incubation, the solution containing the fibrinogen and test material is removed and the level of binding of fibrinogen measured by quantitating bound fibrinogen to GPIIb-IIIa. Any suitable means of detection may be used, but it is convenient to employ labeled fibrinogen, for example using biotinylated labels. Such methods are well known in the art.
A. Description of Assays—Plate Assays
After purification, the receptors were stored in 0.1% Triton X-100 at 0.1-1.0 mg/ml.
The receptors were coated to the wells of 96-well flat-bottom ELISA plates (Linbro EIA-Plus microtiter plate, Flow Laboratories) after diluting 1:200 with a solution of 20 mM Tris-HCl, 150 mM NaCl, 1 mM CaCl2, pH 7.4, to reduce the Triton X-100 concentration to below its critical micellar concentration and adding an aliquot of 100 ul to each well. The wells were all allowed to incubate overnight at 4° C., and then aspirated to dryness. Additional sites were blocked by the addition of bovine serum albumin (BSA) at 35 mg/ml in the above buffer for two hours at 30° C. to prevent nonspecific binding. The wells were then washed once with binding buffer ([…] Tris-HCl, 100 mM NaCl 2 mM CaCl2, 1 mg/ml BSA).
The corresponding ligands (fibrinogen, von Willebrand Factor, or vitronectin) were conjugated to biotin using commercially available reagents and standard protocols. The labeled ligands were added to the receptor-coated wells at final concentration of 10 nM (100 ul/well) and incubated for 3 hours at 25° C. in the presence or absence of the test samples. After incubation, the wells are aspirated to dryness and bound ligand is quantitated.
Decreased color development is observed in wells incubated with test samples which inhibit binding of ligand to receptor.
Background: An ELISA detects its analyte on a solid surface through an enzyme-linked reagent.

Where [3] appears, read: read-out: PRP (ADP-Citrate) IC50.

Like-named read-outs stand apart in the source and are kept apart here. Some results are limits rather than exact numbers.

T1 sequence (P08514 32-887 limits assumed): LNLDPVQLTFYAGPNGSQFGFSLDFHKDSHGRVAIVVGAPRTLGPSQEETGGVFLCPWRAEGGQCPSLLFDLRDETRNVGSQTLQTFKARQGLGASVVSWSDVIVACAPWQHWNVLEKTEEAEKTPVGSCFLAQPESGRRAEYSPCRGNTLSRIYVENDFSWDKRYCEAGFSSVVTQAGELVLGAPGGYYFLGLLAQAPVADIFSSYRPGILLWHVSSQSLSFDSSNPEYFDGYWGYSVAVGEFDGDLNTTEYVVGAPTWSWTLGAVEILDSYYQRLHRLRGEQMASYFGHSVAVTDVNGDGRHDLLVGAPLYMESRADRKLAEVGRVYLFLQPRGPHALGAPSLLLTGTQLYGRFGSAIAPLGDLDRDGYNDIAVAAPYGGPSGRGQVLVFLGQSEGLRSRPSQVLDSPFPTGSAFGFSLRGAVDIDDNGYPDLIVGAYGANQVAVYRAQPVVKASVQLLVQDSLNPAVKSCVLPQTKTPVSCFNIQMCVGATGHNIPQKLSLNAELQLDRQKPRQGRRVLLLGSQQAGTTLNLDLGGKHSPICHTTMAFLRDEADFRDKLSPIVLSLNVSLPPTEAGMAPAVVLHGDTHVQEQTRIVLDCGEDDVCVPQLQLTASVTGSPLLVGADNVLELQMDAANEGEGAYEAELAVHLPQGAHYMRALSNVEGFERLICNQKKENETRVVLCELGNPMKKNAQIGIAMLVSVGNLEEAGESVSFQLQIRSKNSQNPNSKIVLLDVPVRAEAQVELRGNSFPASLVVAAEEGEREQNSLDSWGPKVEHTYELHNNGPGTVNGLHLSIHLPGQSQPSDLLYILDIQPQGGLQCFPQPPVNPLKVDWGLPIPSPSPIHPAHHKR
T1 sequence (P08514 891-1039 limits assumed): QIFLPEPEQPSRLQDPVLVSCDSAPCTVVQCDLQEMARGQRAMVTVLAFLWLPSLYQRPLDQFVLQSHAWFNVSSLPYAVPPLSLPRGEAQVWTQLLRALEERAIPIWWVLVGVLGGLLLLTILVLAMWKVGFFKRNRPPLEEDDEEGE
T1 sequence (P05106 27-788): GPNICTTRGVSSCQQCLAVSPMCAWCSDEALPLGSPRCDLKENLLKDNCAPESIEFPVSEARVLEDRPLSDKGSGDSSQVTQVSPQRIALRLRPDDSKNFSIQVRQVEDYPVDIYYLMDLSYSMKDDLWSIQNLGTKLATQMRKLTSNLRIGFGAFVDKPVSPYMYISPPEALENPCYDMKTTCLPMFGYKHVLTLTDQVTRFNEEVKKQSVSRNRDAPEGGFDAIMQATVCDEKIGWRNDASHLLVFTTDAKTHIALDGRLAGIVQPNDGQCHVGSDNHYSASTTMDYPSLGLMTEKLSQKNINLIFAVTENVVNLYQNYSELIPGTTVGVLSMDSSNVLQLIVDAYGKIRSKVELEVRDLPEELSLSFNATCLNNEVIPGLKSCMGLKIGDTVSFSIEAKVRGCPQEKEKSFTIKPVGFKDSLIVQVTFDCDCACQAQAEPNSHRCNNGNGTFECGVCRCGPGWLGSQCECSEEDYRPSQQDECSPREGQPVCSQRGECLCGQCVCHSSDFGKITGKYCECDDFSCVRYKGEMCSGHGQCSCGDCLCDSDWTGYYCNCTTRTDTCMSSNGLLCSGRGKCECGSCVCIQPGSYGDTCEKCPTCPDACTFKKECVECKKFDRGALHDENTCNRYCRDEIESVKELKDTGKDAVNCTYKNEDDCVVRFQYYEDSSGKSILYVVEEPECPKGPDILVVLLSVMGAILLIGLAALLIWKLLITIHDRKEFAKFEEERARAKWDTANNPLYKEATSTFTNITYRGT

As for `O=C(O)CCCC(=O)N1CCC2(CC1)CCN(c1ccncc1)CC2` [Example 1, 5-oxo-5-(9-(4-pyridyl)-3,9-diazaspiro[5.5]undec-3-yl)pentanoic acid], the IC50 – broadly, the midpoint of a concentration-inhibition curve – in assay [1] (read-out: PRP IC50) was determined as 5.1 µM; in assay [2], 0.238 µM.

For `O=C(O)CCCCC(=O)N1CCC2(CC1)CCN(c1ccncc1)CC2` [Example 2, 6-oxo-6-(9-(4-pyridyl)-3,9-diazaspiro[5.5]undec-3-yl)hexanoic acid], the IC50 is 4.5 µM in assay [1] (read-out: PRP IC50) and 0.258 µM in assay [2].

Take `O=C(O)CCCCCC(=O)N1CCC2(CC1)CCN(c1ccncc1)CC2` [Example 3, 7-oxo-7-(9-(4-pyridyl)-3,9-diazaspiro[5.5]undec-3-yl)heptanoic acid]: the IC50 in assay [1] (read-out: PRP IC50) is 4.5 µM; in assay [2], 0.265 µM.

As for `O=C(O)CCCCCCC(=O)N1CCC2(CC1)CCN(c1ccncc1)CC2` [Example 4, 8-oxo-8-(9-(4-pyridyl)-3,9-diazaspiro[5.5]undec-3-yl)octanoic acid], the IC50 is 18 µM in assay [1] (read-out: PRP IC50) and 1.16 µM in assay [2].

Turning to `O=C(N[C@@H](CCC(=O)N1CCC2(CC1)CCN(c1ccncc1)CC2)C(=O)O)OCc1ccccc1` [Example 5, 2(S)-2-{[(benzyloxy)carbonyl]amino}-5-oxo-5-[9-(4-pyridyl)-3,9-diazaspiro [5.5]undec-3-yl]pentanoic acid], the values for the IC50 in assay [1] (read-out: PRP IC50) and in assay [2] were 4.6 µM and 0.007 µM, respectively.

`CCCCS(=O)(=O)N[C@@H](CCC(=O)N1CCC2(CC1)CCN(c1ccncc1)CC2)C(=O)O` [Example 6, 2(S)-2-[(butylsulfonyl)amino]-5-oxo-5-[9-(4-pyridyl)-3,9-diazaspiro [5.5]undec-3-yl]pentanoic acid]: the IC50 in assay [1] (read-out: PRP IC50) stood at 0.79 µM.

In the case of `Cc1ccc(S(=O)(=O)N[C@@H](CCC(=O)N2CCC3(CC2)CCN(c2ccncc2)CC3)C(=O)O)cc1` [Example 7, 2(S)-2-{[(4-methylphenyl)sulfonyl]amino}-5-oxo-5-[9-(4-pyridyl)-3,9-diazaspiro [5.5]undec-3-yl]pentanoic acid], in assay [1] (read-out: PRP IC50), the IC50 is 0.077 µM.

Regarding `Cc1noc(C)c1S(=O)(=O)N[C@@H](CCC(=O)N1CCC2(CC1)CCN(c1ccncc1)CC2)C(=O)O` [Example 8, 2(S)-2-{[(3,5-dimethyl-4-isoxazolyl)sulfonyl]amino}-5-oxo-5-[9-(4-pyridyl)-3,9-diazaspiro [5.5]undec-3-yl]pentanoic acid], the IC50 in assay [1] (read-out: PRP IC50) stood at 0.021 µM; in assay [2], 0.002 µM.

As for `CCCCOC(=O)N[C@@H](CCC(=O)N1CCC2(CC1)CCN(c1ccncc1)CC2)C(=O)O` [Example 9, 2(S)-2-[(butoxycarbonyl)amino]-5-oxo-5-[9-(4-pyridyl)-3,9-diazaspiro [5.5]undec-3-yl]pentanoic acid], the IC50 turned out to be 0.722 µM in assay [1] (read-out: PRP IC50) and 0.002 µM in assay [2].

On to `Cc1noc(C)c1S(=O)(=O)N[C@@H](CNC(=O)N1CCC2(CC1)CCN(c1ccncc1)CC2)C(=O)O` [Example 10, (2S)-2-{[(3,5-dimethyl-4-isoxazolyl)sulfonyl]amino}-3-( {[9-(4-pyridyl)-3,9-diazaspiro [5.5]undec-3-yl]carbonyl}amino)propanoic acid], for which the IC50 in assay [1] (read-out: PRP IC50) is 0.031 µM; in assay [2], 0.001 µM.

Regarding `O=C(O)COC1CCN(C(=O)N2CCC3(CC2)CCN(c2ccncc2)CC3)CC1` [Example 11, 2-[(1 -{[9-(4-pyridyl)-3,9-diazaspiro[5.5]undec-3-yl]carbonyl}-4-piperidyl)oxy]acetic acid], the figures for the IC50 in assay [1] (read-out: PRP IC50) and in assay [2] were 2.65 µM and 0.129 µM, respectively.

`O=C(O)CC(=O)N1CCC(C(=O)N2CCC3(CC2)CCN(c2ccncc2)CC3)CC1` [Example 12, 3-oxo-3-(4-{[9-(4-pyridyl)-3,9-diazaspiro[5.5]undec-3-yl]carbonyl}piperidino)propanoic acid]: the IC50 worked out at 1.77 µM in assay [1] (read-out: PRP IC50) and 0.039 µM in assay [2].

On to `CCCCOC(=O)N[C@@H](CNC(=O)C1CCC2(CC1)CCN(c1ccncc1)CC2)C(=O)O` [Example 16, (2S)-2-{[(butyloxyl)carbonyl]amino}-3-({[3-(4-pyridyl)-3-azaspiro[5.5]undec-9-yl]carbonyl}amino)propanoic acid], for which, in assay [1] (read-out: PRP (ADP) IC50), the IC50 amounted to 1.88 µM.

Take `CC(CC(=O)O)NC(=O)C1CCC2(CC1)CCN(c1ccncc1)CC2` (stereo not shown) [Example 17, 3-({[3-(4-pyridyl)-3-azaspiro[5.5]undec-9-yl]carbonyl}amino)butanoic acid]: the IC50 in assay [1] (read-out: PRP (ADP) IC50) turned out to be 14.8 µM.

For the molecule `CC(CNC(=O)C1CCC2(CC1)CCN(c1ccncc1)CC2)CC(=O)O` (stereo not shown) [Example 18, 3-methyl-4-({[3-(4-pyridyl)-3-azaspiro[5.5]undec-9-yl]carbonyl}amino) butanoic acid], the IC50 in assay [1] (read-out: PRP (ADP) IC50) was 3 µM.

For the molecule `O=C(O)CC(=O)N1CCC(C(=O)N2CCC3(CCN(c4ccncc4)CC3)C2)CC1` [Example 19, 3-oxo-3-(4-{[8-(4-pyridyl)-2,8-diazaspiro[4.5]dec-2-yl]carbonyl}piperidino)propanoic acid], the figures for the IC50 in assay [1] (setting [3]) and in assay [2] were 1.6 µM and 0.028 µM, respectively.

Consider `O=C(N[C@@H](CCC(=O)N1CCC2(CCN(c3ccncc3)CC2)C1)C(=O)O)OCc1ccccc1` [Example 20, (2S)-2-{[(benzyloxy)carbonyl]amino}-5-oxo-5-[8-(4-pyridyl)-2,8-diazaspiro [4.5]dec-2-yl]pentanoic acid], for which the IC50 came out at 9.1 µM in assay [1] (setting [3]) and 0.012 µM in assay [2].

In the case of `CCCCOC(=O)N[C@@H](CCC(=O)N1CCC2(CCN(c3ccncc3)CC2)C1)C(=O)O` [Example 21, (2S)-2-[(butoxycarbonyl)amino]-5-oxo-5-[8-(4-pyridyl)-2,8-diazaspiro [4.5]dec-2-yl]pentanoic acid], the IC50 came out at 5.7 µM in assay [1] (setting [3]) and 0.162 µM in assay [2].

On to `O=C(O)CCCCC(=O)N1CCC2(CCN(c3ccncc3)CC2)C1` [Example 22, 6-oxo-6-(8-(4-pyridyl)-2,8-diazaspiro[4.5]dec-2-yl)hexanoic acid], for which the IC50 in assay [1] (setting [3]) was greater than 80 µM.

In the case of `O=C(O)CCN1CCN(C(=O)N2CCC3(CCN(c4ccncc4)CC3)C2)CC1=O` [Example 25, 3-(2-oxo-4-((8-(4-pyridyl)-2,8-diazaspiro[4.5]dec-2-yl)carbonyl)piperazino)propanoic acid], in assay [1] (setting [3]), the IC50 amounted to 8.3 µM.

With `O=C(O)CCN1CCN(C(=O)N2CCC3(CC2)CCN(c2ccncc2)C3)CC1=O` [Example 30, 3-(2-oxo-4-((2-(4-pyridyl)-2,8-diazaspiro[4.5]dec-8-yl)carbonyl)piperazino)propanoic acid], the IC50 in assay [1] (setting [3]) amounted to 1.29 µM.

Consider `O=C(O)CN1CCC(N2CCC3(CCN(c4ccncc4)C3)CC2)CC1` [Example 32, 2-{4-(2-(4-pyridyl)-2,8-diazaspiro[4.5]dec-8-yl]piperidino}acetic acid], for which, in assay [1] (setting [3]), the IC50 turned out to be 9.5 µM.

Consider `O=C(O)CN1CCC(CC(=O)N2CCC3(CC2)CCN(c2ccncc2)C3)CC1` [Example 33, 2-(4-{2-oxo-2-[2-(4-pyridyl)-2,8-diazaspiro[4.5]dec-8-yl]ethyl}piperidino)acetic acid], for which the IC50 in assay [1] (setting [3]) was 80 µM.

For the molecule `CCCCOC(=O)N[C@@H](CCC(=O)N1CCC2(CC1)CCN(c1ccncc1)C2)C(=O)O` [Example 35, (2S)-2-[(butoxycarbonyl)amino]-5-oxo-5-[2-(4-pyridyl)-2,8-diazaspiro [4.5]dec-8-yl]pentanoic acid], the IC50 in assay [1] (setting [3]) is 4 µM.

On to `CN(CC(=O)O)C1CCN(C(=O)N2CCC3(CC2)CCN(c2ccncc2)C3)CC1` [Example 46, 2-[methyl(1-{[2-(4-pyridyl)-2,8-diazaspiro[4.5]dec-8-yl]carbonyl}-4-piperidyl)amino]acetic acid], for which, in assay [1] (read-out: PRP IC50), the IC50 is 10 µM.

Turning to `O=C(O)COC1CCN(CC(=O)N2CCC3(CC2)CCN(c2ccncc2)C3)CC1` [Example 50, 2-[(1-{2-oxo-2-[2-(4-pyridyl)-2,8-diazaspiro[4.5]dec-8-yl]ethyl}-4-piperidyl)oxyl]acetic acid], in assay [1] (read-out: PRP IC50), the IC50 amounted to 80 µM.

`O=C(O)COc1ccc(C(=O)N2CCC3(CC2)CCN(c2ccncc2)C3)cc1` [Example 52, 2-(4-{[2-(4-pyridyl)-2,8-diazaspiro[4.5]dec-8-yl]carbonyl}phenoxy) acetic acid]: the IC50 in assay [1] (setting [3]) was 11.3 µM.
